Results published in PubChem BioAssay (NCI).
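Cells were grown in 96-well plates and exposed to each compound for 48 hours at five concentrations; endpoints were interpolated linearly between bracketing concentrations, or set to the highest concentration if not reached. GI50: concentration for 50% inhibition of growth. TGI: total growth inhibition.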

Legend:
Assay in all cases: NCI tumour cell line growth inhibition, 48 h
MALME-3M melanoma = system: MALME-3M melanoma
CCRF-CEM leukemia = system: CCRF-CEM leukemia
UACC-62 melanoma = system: UACC-62 melanoma
SW-620 colon = system: SW-620 colon
M19-MEL melanoma = system: M19-MEL melanoma
NCI-H460 lung = system: NCI-H460 lung
EKVX NSCLC = system: EKVX NSCLC
XF 498 CNS = system: XF 498 CNS
OVCAR-5 ovarian = system: OVCAR-5 ovarian
RPMI-8226 leukemia = system: RPMI-8226 leukemia
HCT-116 colon = system: HCT-116 colon
OVCAR-4 ovarian = system: OVCAR-4 ovarian
OVCAR-8 ovarian = system: OVCAR-8 ovarian
IGROV1 ovarian = system: IGROV1 ovarian
CAKI-1 renal = system: CAKI-1 renal
HT29 colon = system: HT29 colon
SF-295 CNS = system: SF-295 CNS
ACHN renal = system: ACHN renal
HOP-92 NSCLC = system: HOP-92 NSCLC
OVCAR-3 ovarian = system: OVCAR-3 ovarian
SNB-75 CNS = system: SNB-75 CNS
KM12 colon = system: KM12 colon
SNB-78 CNS = system: SNB-78 CNS
HCC-2998 colon = system: HCC-2998 colon
RXF 393 renal = system: RXF 393 renal
DLD-1 colon = system: DLD-1 colon
NCI-H522 lung = system: NCI-H522 lung
SK-OV-3 ovarian = system: SK-OV-3 ovarian
MOLT-4 leukemia = system: MOLT-4 leukemia
TK-10 renal = system: TK-10 renal
SF-539 CNS = system: SF-539 CNS
KM20L2 colon = system: KM20L2 colon
A549 NSCLC = system: A549 NSCLC
SK-MEL-5 melanoma = system: SK-MEL-5 melanoma
HCT-15 colon = system: HCT-15 colon
LOX IMVI melanoma = system: LOX IMVI melanoma
SR leukemia = system: SR leukemia
SK-MEL-28 melanoma = system: SK-MEL-28 melanoma
HL-60(TB) leukemia = system: HL-60(TB) leukemia
SK-MEL-2 melanoma = system: SK-MEL-2 melanoma
K-562 leukemia = system: K-562 leukemia
SN12C renal = system: SN12C renal
DMS 273 small cell lung = system: DMS 273 small cell lung
UO-31 renal = system: UO-31 renal
HOP-62 NSCLC = system: HOP-62 NSCLC
U251 CNS = system: U251 CNS
COLO 205 colon = system: COLO 205 colon
NCI-H23 lung = system: NCI-H23 lung
LXFL 529 NSCLC = system: LXFL 529 NSCLC
M14 melanoma = system: M14 melanoma
DMS 114 small cell lung = system: DMS 114 small cell lung
786-0 renal = system: 786-0 renal
A498 renal = system: A498 renal
SNB-19 CNS = system: SNB-19 CNS
NCI-H226 lung = system: NCI-H226 lung
UACC-257 melanoma = system: UACC-257 melanoma

**Q.** For `CCC[CH2][Sn]1([CH2]CCC)[O]CC(C)[O]1` (configuration not stated), which GI50 (MALME-3M melanoma) is on record?
**A.** 544 nM

**Q.** And the TGI (MALME-3M melanoma)?
**A.** 2220 nM

**Q.** And the GI50 (CCRF-CEM leukemia)?
**A.** 314 nM

**Q.** What about the TGI (CCRF-CEM leukemia) of the same molecule?
**A.** 970 nM

**Q.** What about the GI50 (UACC-62 melanoma) of the same molecule?
**A.** 1310 nM

**Q.** And the TGI (UACC-62 melanoma)?
**A.** 2910 nM

**Q.** And the GI50 (SW-620 colon)?
**A.** 460 nM

**Q.** What about the TGI (SW-620 colon) of the same molecule?
**A.** 1830 nM

**Q.** What about the GI50 (M19-MEL melanoma) of the same molecule?
**A.** 803 nM

**Q.** What about the TGI (M19-MEL melanoma) of the same molecule?
**A.** 2230 nM

**Q.** What about the GI50 (NCI-H460 lung) of the same molecule?
**A.** 2940 nM

**Q.** And the TGI (NCI-H460 lung)?
**A.** 13.9 µM

**Q.** What about the GI50 (EKVX NSCLC) of the same molecule?
**A.** 1830 nM

**Q.** And the TGI (EKVX NSCLC)?
**A.** 4 µM

**Q.** What about the GI50 (XF 498 CNS) of the same molecule?
**A.** 990 nM

**Q.** And the TGI (XF 498 CNS)?
**A.** 2330 nM

**Q.** And the GI50 (OVCAR-5 ovarian)?
**A.** 2030 nM

**Q.** What about the TGI (OVCAR-5 ovarian) of the same molecule?
**A.** 7.45 µM

**Q.** And the GI50 (RPMI-8226 leukemia)?
**A.** 309 nM

**Q.** And the TGI (RPMI-8226 leukemia)?
**A.** 2070 nM

**Q.** What about the GI50 (HCT-116 colon) of the same molecule?
**A.** 1780 nM

**Q.** And the TGI (HCT-116 colon)?
**A.** 3.43 µM

**Q.** And the GI50 (OVCAR-4 ovarian)?
**A.** 1590 nM

**Q.** And the TGI (OVCAR-4 ovarian)?
**A.** 3.45 µM

**Q.** And the GI50 (OVCAR-8 ovarian)?
**A.** 1590 nM

**Q.** What about the TGI (OVCAR-8 ovarian) of the same molecule?
**A.** 3.47 µM

**Q.** What about the GI50 (IGROV1 ovarian) of the same molecule?
**A.** 1880 nM

**Q.** And the TGI (IGROV1 ovarian)?
**A.** 3.94 µM

**Q.** And the GI50 (CAKI-1 renal)?
**A.** 240 nM

**Q.** What about the TGI (CAKI-1 renal) of the same molecule?
**A.** 1230 nM

**Q.** And the GI50 (HT29 colon)?
**A.** 1740 nM

**Q.** And the TGI (HT29 colon)?
**A.** 3.44 µM

**Q.** What about the GI50 (SF-295 CNS) of the same molecule?
**A.** 1400 nM

**Q.** And the TGI (SF-295 CNS)?
**A.** 2740 nM

**Q.** What about the GI50 (ACHN renal) of the same molecule?
**A.** 1540 nM

**Q.** And the TGI (ACHN renal)?
**A.** 2890 nM

**Q.** What about the GI50 (HOP-92 NSCLC) of the same molecule?
**A.** 1160 nM

**Q.** What about the TGI (HOP-92 NSCLC) of the same molecule?
**A.** 2520 nM

**Q.** And the GI50 (OVCAR-3 ovarian)?
**A.** 1370 nM

**Q.** And the TGI (OVCAR-3 ovarian)?
**A.** 2670 nM

**Q.** What about the GI50 (SNB-75 CNS) of the same molecule?
**A.** 570 nM

**Q.** And the TGI (SNB-75 CNS)?
**A.** 2300 nM

**Q.** What about the GI50 (KM12 colon) of the same molecule?
**A.** 2100 nM

**Q.** What about the TGI (KM12 colon) of the same molecule?
**A.** 6.23 µM

**Q.** What about the GI50 (SNB-78 CNS) of the same molecule?
**A.** 301 nM

**Q.** What about the TGI (SNB-78 CNS) of the same molecule?
**A.** 909 nM

**Q.** What about the GI50 (HCC-2998 colon) of the same molecule?
**A.** 1460 nM

**Q.** And the TGI (HCC-2998 colon)?
**A.** 2910 nM

**Q.** And the GI50 (RXF 393 renal)?
**A.** 1460 nM

**Q.** What about the TGI (RXF 393 renal) of the same molecule?
**A.** 2990 nM

**Q.** And the GI50 (DLD-1 colon)?
**A.** 1470 nM

**Q.** What about the TGI (DLD-1 colon) of the same molecule?
**A.** 3.32 µM

**Q.** And the GI50 (NCI-H522 lung)?
**A.** 306 nM

**Q.** What about the TGI (NCI-H522 lung) of the same molecule?
**A.** 1070 nM

**Q.** And the GI50 (SK-OV-3 ovarian)?
**A.** 3.56 µM

**Q.** And the TGI (SK-OV-3 ovarian)?
**A.** 10.4 µM

**Q.** And the GI50 (MOLT-4 leukemia)?
**A.** 560 nM

**Q.** And the TGI (MOLT-4 leukemia)?
**A.** 3000 nM

**Q.** What about the GI50 (TK-10 renal) of the same molecule?
**A.** 1260 nM

**Q.** And the TGI (TK-10 renal)?
**A.** 2560 nM

**Q.** And the GI50 (SF-539 CNS)?
**A.** 1460 nM

**Q.** What about the TGI (SF-539 CNS) of the same molecule?
**A.** 3.46 µM

**Q.** What about the GI50 (KM20L2 colon) of the same molecule?
**A.** 2530 nM

**Q.** What about the TGI (KM20L2 colon) of the same molecule?
**A.** 6.86 µM

**Q.** What about the GI50 (A549 NSCLC) of the same molecule?
**A.** 9.72 µM

**Q.** And the TGI (A549 NSCLC)?
**A.** 21.8 µM

**Q.** And the GI50 (SK-MEL-5 melanoma)?
**A.** 1470 nM

**Q.** And the TGI (SK-MEL-5 melanoma)?
**A.** 3.26 µM

**Q.** What about the GI50 (HCT-15 colon) of the same molecule?
**A.** 1100 nM

**Q.** And the TGI (HCT-15 colon)?
**A.** 2350 nM

**Q.** And the GI50 (LOX IMVI melanoma)?
**A.** 1230 nM

**Q.** And the TGI (LOX IMVI melanoma)?
**A.** 2660 nM

**Q.** What about the GI50 (SR leukemia) of the same molecule?
**A.** 515 nM

**Q.** What about the TGI (SR leukemia) of the same molecule?
**A.** 2270 nM

**Q.** And the GI50 (SK-MEL-28 melanoma)?
**A.** 2240 nM

**Q.** And the TGI (SK-MEL-28 melanoma)?
**A.** 3.96 µM

**Q.** What about the GI50 (HL-60(TB) leukemia) of the same molecule?
**A.** 661 nM

**Q.** And the TGI (HL-60(TB) leukemia)?
**A.** 2620 nM

**Q.** What about the GI50 (SK-MEL-2 melanoma) of the same molecule?
**A.** 540 nM

**Q.** What about the TGI (SK-MEL-2 melanoma) of the same molecule?
**A.** 1830 nM

**Q.** What about the GI50 (K-562 leukemia) of the same molecule?
**A.** 367 nM

**Q.** And the TGI (K-562 leukemia)?
**A.** 1970 nM

**Q.** What about the GI50 (SN12C renal) of the same molecule?
**A.** 1390 nM

**Q.** And the TGI (SN12C renal)?
**A.** 2780 nM

**Q.** What about the GI50 (DMS 273 small cell lung) of the same molecule?
**A.** 1260 nM

**Q.** What about the TGI (DMS 273 small cell lung) of the same molecule?
**A.** 2660 nM

**Q.** And the GI50 (UO-31 renal)?
**A.** 1540 nM

**Q.** And the TGI (UO-31 renal)?
**A.** 3.1 µM

**Q.** And the GI50 (HOP-62 NSCLC)?
**A.** 2630 nM

**Q.** What about the TGI (HOP-62 NSCLC) of the same molecule?
**A.** 6.62 µM

**Q.** And the GI50 (U251 CNS)?
**A.** 1390 nM

**Q.** And the TGI (U251 CNS)?
**A.** 2720 nM

**Q.** And the GI50 (COLO 205 colon)?
**A.** 1010 nM

**Q.** And the TGI (COLO 205 colon)?
**A.** 2290 nM

**Q.** And the GI50 (NCI-H23 lung)?
**A.** 749 nM

**Q.** What about the TGI (NCI-H23 lung) of the same molecule?
**A.** 2080 nM

**Q.** What about the GI50 (LXFL 529 NSCLC) of the same molecule?
**A.** 149 nM

**Q.** And the TGI (LXFL 529 NSCLC)?
**A.** 1350 nM

**Q.** And the GI50 (M14 melanoma)?
**A.** 1870 nM

**Q.** What about the TGI (M14 melanoma) of the same molecule?
**A.** 4.87 µM

**Q.** What about the GI50 (DMS 114 small cell lung) of the same molecule?
**A.** 1110 nM

**Q.** And the TGI (DMS 114 small cell lung)?
**A.** 2490 nM

**Q.** And the GI50 (786-0 renal)?
**A.** 1480 nM

**Q.** And the TGI (786-0 renal)?
**A.** 2840 nM

**Q.** And the GI50 (A498 renal)?
**A.** 2600 nM

**Q.** And the TGI (A498 renal)?
**A.** 4.68 µM

**Q.** What about the GI50 (SNB-19 CNS) of the same molecule?
**A.** 1320 nM

**Q.** And the TGI (SNB-19 CNS)?
**A.** 2640 nM

**Q.** And the GI50 (NCI-H226 lung)?
**A.** 2110 nM

**Q.** And the TGI (NCI-H226 lung)?
**A.** 4.62 µM

**Q.** What about the GI50 (UACC-257 melanoma) of the same molecule?
**A.** 1070 nM

**Q.** And the TGI (UACC-257 melanoma)?
**A.** 2560 nM
